Structures can show the parent of a compound that is named as a salt.
Assays:
[1] = target: T1, human recombinant 5-HT2c receptor (Homo sapiens, UniProt P28335); assay: 3H-meselurgine radioligand binding SPA, membranes from Swiss 3T3 cells (Method 2); details: 3H-meselurgine displacement, Cheng-Prusoff; Swiss 3T3 membranes; read-out: Binding Affinity Ki
T1 construct: expressed in transfected cells; host or cells: CHO K1 (Chinese hamster ovary), stably transfected
T1 sequence (P28335 33-458): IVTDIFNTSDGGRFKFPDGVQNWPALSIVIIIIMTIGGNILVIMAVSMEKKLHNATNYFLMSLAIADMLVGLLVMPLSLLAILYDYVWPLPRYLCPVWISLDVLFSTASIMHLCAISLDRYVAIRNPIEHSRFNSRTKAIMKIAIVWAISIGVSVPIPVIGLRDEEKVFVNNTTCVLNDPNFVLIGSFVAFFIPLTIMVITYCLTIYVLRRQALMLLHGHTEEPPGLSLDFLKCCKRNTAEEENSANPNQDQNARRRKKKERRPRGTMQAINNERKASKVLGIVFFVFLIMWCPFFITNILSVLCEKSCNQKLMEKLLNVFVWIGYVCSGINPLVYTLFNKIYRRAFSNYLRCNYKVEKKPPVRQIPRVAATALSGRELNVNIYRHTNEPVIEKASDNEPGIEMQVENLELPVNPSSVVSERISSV
Method: (§1) The compounds of the invention were evaluated for biological activity by measuring the agonist affinity (EC50) and efficacy (Emax) at the human recombinant 5-HT2c receptor expressed in CHO K1 cells, using a fluorescent based Ca^2+ mobilisation assay format compatible with FLIPR technology (Method 1). Additionally, the binding activity of a compound was determined by measuring its affinity for the human recombinant 5-HT2c receptor membranes from Swiss 3T3 cells (Method 2).
The compounds were tested for biological activity by their ability to inhibit binding of the radioligand ^3H-meselurgine at the human recombinant 5-HT2C receptor expressed in the Swiss 3T3 cells using a scintillation proximity assay (SPA) technology.
Swiss 3T3 stably transfected with the 5-HT2C receptor were cultured under standard cell culture techniques. Specifically, cells were grown in 50 mL growth medium (Dulbecco's Modified Eagle's Medium (DMEM) culture media supplemented with 10% dialysed foetal calf serum (FCS), 2 mM penicillin/streptomycin and 20 μg/mL geneticin) in 225 cm^2 flasks at 37° C. and 5% CO2. Cells were grown to 60-80% confluency, harvested using trypsin-EDTA and pelleted by centrifugation for long-term storage at −80° C.
Cell pellets were thawed on ice and resuspended in 3 mL of membrane preparation buffer (see Media and Buffers for composition) per 1 mL of packed cell. The suspension was homogenised on ice for several 5 s intervals using a hand-held homogeniser. The homogenate was then centrifuged at 1,000 rpm for 5 min at 4° C.
The supernatants were then collected and retained. Initial cell & nuclei pellets (P1) were subsequently rehomogenised and centrifuged using the conditions cited above, and the supernatants collected and pooled with those retained from the first spin.
The pooled supernatants were centrifuged at 19,500 rpm for 45 min at 4° C., and the supernatants discarded. The pellets (P2) were then resuspended in 3 mL of membrane preparation buffer per 1 mL of the original packed cell volume. Protein concentrations were subsequently measured and the membrane suspension was finally frozen in aliquots of set volume and stored at −80° C. prior to use in assays.
For each batch of membrane used, optimal concentrations of Polylysine YSi SPA beads and membrane were determined. The assay free radioligand concentration was expressed as a percentage of the total free radioligand concentration to give an estimate of the radioligand depletion.
The affinity of ^3H-meselurgine for the human recombinant 5-HT2c receptor was determined for each membrane batch at the selected protein and bead concentrations. […] The mean KD for ^3H-meselurgine at a batch of membranes was determined from data from a minimum of three separate assays.
The required amount of membrane, was thawed on ice and added to a pre-determined volume of bead suspension in 50 mM HEPES buffer, pH 7.4. The beads were then pre-coupled by incubating the predetermined protein quantity per mg of bead on a roller 4° C. for 1 h. Subsequently, the bead/membrane complex was spun down at 1000 rpm for 5 min. The resulting pellet was resuspended in assay buffer at the specific concentration required for the final assay.
An aliquot of [^3H]-meselurgine stock was diluted in binding assay buffer to give a pre-determined final assay concentration less than the equilibrium dissociation constant (KD) value.
All test compounds were prepared at a concentration of 4 mM in 100% dimethyl sulphoxide (DMSO) from dry samples.
The same volume of assay buffer was added to specific wells of the plate to enable subsequent measurement of total radioligand binding. Furthermore, 5 μL of Mianserin at 25 μM (2.5 μM final assay concentration was subsequently added to pre-determined wells to determine non-specific binding (NSB).

[2] = target: T1, human recombinant 5-HT2c receptor; assay: FLIPR fluorescent Ca2+ mobilisation agonist assay in CHO K1 cells (Method 1); type: cell-based; details: for EC50: agonist affinity, FLIPR; for Emax %: efficacy; for Emax % / Emax: percentage of mean maximal response to 10 μM 5-HT; for Emax: CHO-K1, efficacy
Method: as §1
The agonist affinity of the compounds were tested by measuring their ability to induce a fluorescent based Ca^2+ mobilization signal in a FLIPR assay using CHO K1 cells expressing recombinant human 5-HT2C receptor. Both agonist affinity (EC50) and efficacy (Emax) were determined.
Chinese hamster ovary cells (CHO K1) stably transfected with the 5-HT2c receptor were cultured under standard cell culture techniques. Specifically, cells were grown at 37° C. and 5% CO2 in Dulbecco's Modified Eagle's Medium (DMEM) culture media supplemented with 10% dialysed foetal calf serum (FCS), 1% non-essential amino acids, 1 mM sodium pyruvate, 800 μg/mL geneticin and 50 μg/ml zeocin. Cells were harvested for passaging and storage using trypsin-EDTA, centrifugation and resuspension in culture medium. Cells were grown to 60-80% confluency, harvested and adjusted to 15-20×10^6 cells/ml/vial in medium/10% DMSO and stored long-term at −80° C.
Cells were seeded into black-walled clear-bottomed 384 well plates 24 h before use. Frozen cells were defrosted in a 37° C. water bath and immediately transferred into 1 mL/vial 37° C. culture medium, diluted to 10 ml and DMSO removed by centrifugation. The cells were resuspended in 15 ml/vial of cell culture medium, counted and adjusted to give 500,000 cells/mL (10,000 cells/well). […] of cell suspension was added to the 384 well plates which were then incubated overnight at 37° C.
The maximum agonist response was determined with 5-HT at a final assay concentration of 10 μM in the diluent above. The minimum response was determined with Dulbeccos PBS (+CaCl2, +MgCl2) with 0.9% DMSO and 0.05% pluronic F-127. Test compounds, maximum and minimum controls were added to a 384 well polypropylene plate.
The FLIPR calcium assay reagent was diluted with assay buffer (Hank's Balanced Salt Solution (HBSS))/20 mM HEPES and 2.5 mM probenecid (diluted with 1M Sodium hydroxide and DPBS (+CaCl2, +MgCl2)).
20 μl/well FLIPR calcium assay reagent was added to the cell plates, which were incubated for 1 h at 37° C. Cell plates and compound plates were then transferred onto the FLIPR. The assay was run using the appropriate FLIPR program, which initiates the reaction by transferring 15 μL compound into the corresponding, well of the cell plate.
The statistical parameter exported from each well was the max peak height of the response.

| Ki [1] [nM] | EC50 [2] [nM] | Emax [2] [%] | Compound | Emax % [2] [%] |
| --- | --- | --- | --- | --- |
|  | 326 | 49.9 | CCN(C)c1nc2c(c(NCC(C)C)n1)CCNCC2 [Example 101, N-2-ethyl-N-4-isobutyl-N-2-methyl-6,7,8,9-tetra-hydro-5H-pyrimido[4,5-d]azepine-2,4-diamine] |  |
|  | 173 | 74.3 | CCN(C)c1nc2c(c(NC)n1)CCNCC2 [Example 102, N-2-ethyl-N-2,N-4-dimethyl-6,7,8,9-tetra-hydro-5H-pyrimido[4,5-d]-azepine-2,4-diamine] |  |
|  | 449 | 32.7 | CCCNc1nc(N(C)CC2CC2)nc2c1CCNCC2 [Example 103, N-2-(cyclopropylmethyl)-N-2-methyl-N-4-propyl-6,7,8,9-tetrahydro-5H-pyrimido[4,5-d]azepine-2,4-diamine] |  |
|  | 202 | 64.1 | CN(Cc1ccccc1)c1nc2c(c(N3CCOCC3)n1)CCNCC2 [Example 105, N-benzyl-N-methyl-4-morpholin-4-yl-6,7,8,9-tetrahydro-5H-pyrimido-[4,5-d]azepin-2-amine] |  |
|  | 363 | 43.2 | CN(C)c1nc2c(c(N(C)C)n1)CCNCC2 [Example 107, N,N,N′,N′-tetramethyl-6,7,8,9-tetrahydro-5H-pyrimido[4,5-d]azepine-2,4-diamine] |  |
|  | 141 | 64.3 | CCCNc1nc2c(c(N3CCSCC3)n1)CCNCC2 [Example 111, N-propyl-4-thiomorpholin-4-yl-6,7,8,9-tetrahydro-5H-pyrimido[4,5-d]-azepin-2-amine] |  |
|  | 543 | 42.8 | CCNc1nc2c(c(N(C)CC3CC3)n1)CCNCC2 [Example 112, N-4-(cyclopropylmethyl)-N-2-ethyl-N-4-methyl-6,7,8,9-tetrahydro-5H-pyrimido[4,5-d]azepine-2,4-diamine] |  |
|  | 279 |  | CN(C)c1nc(N(C)Cc2ccccc2)nc2c1CCNCC2 [Example 113, N-2-benzyl-N-2,N-4,N-4-trimethyl-6,7,8,9-tetra-hydro-5H-pyrimido[4,5-d]azepine-2,4-diamine] | 50.8 |

The next lines start with the compound.

| Compound | Ki [1] [nM] | EC50 [2] [nM] | Emax [2] [%] | Emax % [2] [%] |
| --- | --- | --- | --- | --- |
| 2-[Difluoro(phenyl)methyl]-N-methyl-6,7,8,9-tetrahydro-5H-pyrimido[4,5-d]azepin-4-amine [Example 8] | 44.5 | 128 |  | 54.30 |
| CC1CNCCc2cnc(Cc3ccccc3)nc21 (single isomer, unassigned) [47 (Peak 1), 2-Benzyl-9-methyl-6,7,8,9-tetrahydro-5H-pyrimido[4,5-d]azepine] | 133 | 453 |  | 96.40 |
| CC1CNCCc2cnc(Cc3ccccc3)nc21 (single isomer, unassigned) [47 (Peak 2), 2-Benzyl-9-methyl-6,7,8,9-tetrahydro-5H-pyrimido[4,5-d]azepine] | 218 | 233 | 76.6 |  |
| OC(c1ccccc1)c1ncc2c(n1)CCNCC2 (single isomer, unassigned; stereoisomer 1) [Example 70, Phenyl-(6,7,8,9-tetrahydro-5H-pyrimido[4,5-d]azepin-2-yl)-methanol dihydrochloride (Stereoisomer 1)] | 978 | 643 | 76 |  |
| c1ccc(Cc2nc3c(c(-n4cccn4)n2)CCNCC3)cc1 [Example 1, 2-Benzyl-4-(1H-pyrazol-1-yl)-6,7,8,9-tetrahydro-5H-pyrimido[4,5-d]azepine] | 72 | 224 | 83.5 |  |
| CC(c1ccccc1)c1ncc2c(n1)CCNCC2 (stereo not drawn) [Example 2, 2-(1-Phenylethyl)-6,7,8,9-tetrahydro-5H-pyrimido[4,5-d]azepine] | 140 | 198 | 84.9 |  |
| CC(C)(c1ccccc1)c1ncc2c(n1)CCNCC2 [Example 9, 2-(1-Methyl-1-phenylethyl)-6,7,8,9-tetrahydro-5H-pyrimido[4,5-d]azepine] | 401 | 732 | 52.6 |  |
| CC(C)(c1ccccc1)c1nc2c(c(N3CCOCC3)n1)CCNCC2 [Example 11, 2-(1-Methyl-1-phenylethyl)-4-morpholin-4-yl-6,7,8,9-tetrahydro-5H-pyrimido[4,5-d]azepine] | 73.5 | 884 | 75.2 |  |
| c1ccc(C2(c3nc4c(c(N5CCOCC5)n3)CCNCC4)CC2)cc1 [Example 13, 4-Morpholin-4-yl-2-(1-phenylcyclopropyl)-6,7,8,9-tetrahydro-5H-pyrimido[4,5-d]azepine] | 2300 | 499 | 64.4 |  |
| c1ccc(CNc2nc(N3CCC3)nc3c2CCNCC3)cc1 [Example 108, 2-azetidin-1-yl-N-benzyl-6,7,8,9-tetrahydro-5H-pyrimido[4,5-d]azepin-4-amine] |  | 149 | 44.4 |  |
| C1Cc2nc(NC3CC3)nc(N3CCSCC3)c2CCN1 [Example 109, N-cyclopropyl-4-thio-morpholin-4-yl-6,7,8,9-tetrahydro-5H-pyrimido-[4,5-d]azepin-2-amine] |  | 247 | 87.7 |  |
| c1ccc(CCNc2nc3c(c(N4CCSCC4)n2)CCNCC3)cc1 [Example 110, N-(2-phenylethyl)-4-thiomorpholin-4-yl-6,7,8,9-tetrahydro-5H-pyrimido[4,5-d]azepin-2-amine] |  | 604 | 38.8 |  |
| N-benzyl-N-methyl-6,7,8,9-tetrahydro-5H-pyrimido[4,5-d]azepin-2-amine hydrochloride [Example 49] |  | 182 |  | 71.20 |

— patent publication US7928099B2, “Pyrimido [4,5-D] azepine derivatives as 5-HT2c agonists” (Pfizer Inc, priority 2007, dated 2011)
